# Read-outs that look alike come from different tables or passages of the source.
# Tests used:
# [1] = cited from earlier work
# [2] = system: grape cultured cells (VR calluses); assay: Anthocyanin content in grape calluses treated with various amino acids (Reference Example 1(1)); format: cell-based, Vitis vinifera L.; conditions: 5 days
# Experimental: Cells derived from a European grape cell line (Vitis vinifera L.; RIKEN BioResource Center; VR, management number RPC00003) were subcultured on MS agar medium. The subcultured VR calluses (i.e. cell clusters) were each transferred to MS agar medium containing 5 mM of each amino acid solution, and cultured. As a positive control, 100 μM abscisic acid (ABA) was added, which is a known color-promotor. Five days after the transfer, each callus was freeze-dried and ground, and anthocyanin was extracted with a 1% HCl solution in MeOH.
# [3] = system: Cabernet Sauvignon grape plants; assay: Effect of isoleucine on coloring of grape berries, sprinkled on bunches in test farm (Reference Example 1(2)); format: in vivo; conditions: 10 mM Ile + 0.1% Applauch BI sprinkled on bunches in veraison period; FIG. 1
# Experimental: Cabernet Sauvignon grape plants that had been cultivated in a test farm and had entered into the veraison period were chosen for this experiment. Eight bunches of grapes on each of two grape plants, 16 bunches of grapes in total, were selected for each test group. On each bunch of grapes, about 6.25 mL of 0.1% Applauch BI (Kao, control), 1 g/L of abscisic acid (ABA)+0.1% Applauch BI (positive control), or 10 mM isoleucine (Ile)+0.1% Applauch BI was sprinkled. As samples, 4 bunches for each test group were collected 4 times. Anthocyanin present in the pericarps was extracted with a mixed solution of water and acetone (1:2), and the anthocyanin content was measured in the same manner as described above.
structure (smiles),measurement,setting,value
"CC(C)C[C@H](N)C(=O)O [Leu, leucine]",solubility in water,[1]; 20° C.,24 mg/mL
same,solubility in water,[1]; 50° C.,29 mg/mL
same,solubility in water,[1],about 0.2 M
"N[C@@H](Cc1ccccc1)C(=O)O [Phe, phenylalanine]",solubility in water,[1]; 20° C.,27 mg/mL
same,solubility in water,[1]; 50° C.,40 mg/mL
same,solubility in water,[1],about 0.2 M
C[C@H](N)C(=O)O [Ala],Relative content of anthocyanin,"[2]; 5 mM amino acid in MS agar medium, relative to positive control 100 μM ABA taken as 100%",7%
"CC[C@H](C)[C@H](N)C(=O)O [Ile, isoleucine]",anthocyanin content of callus (in words),"[2]; 5 mM amino acid, compared among the amino acids of Table 1",highest anthocyanin content
same,anthocyanin content in pericarps,[3],increased
same,solubility in water,[1],about 0.3 M

# Source: patent publication US10568324B2, “Agricultural and horticultural material, and plant cultivation method which promote coloring in fruit” (AJINOMOTO CO., INC., priority 2015, dated 2020)
